Data as given in patent US10960005B2, “Treatment of relapsed and/or refractory solid tumors and non-hodgkin's lymphomas” (CELGENE QUANTICEL RESEARCH, INC., priority 2016, dated 2021).
Like-named read-outs stand apart in the source and are kept apart here.

Experiments:
[1] = test system: LXFS 573 SCLC patient-derived xenograft; assay type: in vivo
NCI-H1417 SCLC xenograft = assay type: in vivo
[2] = Etoposide at 24 mg/kg/day SC days 1-3 + Vehicle
[3] = etoposide monotherapy 24 mg/kg SC
[4] = etoposide monotherapy 24 mg/kg SC QD×3

## COc1cc([C@@H]2c3cc4c(cc3[C@@H](O[C@@H]3O[C@@H]5CO[C@@H](C)O[C@H]5[C@H](O)[C@H]3O)[C@H]3COC(=O)[C@H]23)OCO4)cc(OC)c1O [Etoposide, etoposide, reference compound]
[1]; [2]
  % TGD: 50%
  T-C: 21 days
  median TTE: 63 days
[1]; Etoposide at 24 mg/kg/day SC days 1-3 + Vehicle, Day 133, N=8
  SS (number of study survivors): 0 (na)
[1]; [3]
  % TGD: 50%
  TGD: 21 days
NCI-H1417 SCLC xenograft; 24 mg/kg Etoposide SC QD × 3
  % TGD: 92%
  T-C: 24 days
  median TTE: 50 days
NCI-H1417 SCLC xenograft; [4]
  % TGD: 92%
  TGD: 24 days
